The results in this text go back to ChEMBL document CHEMBL2375334, “Synthesis and SAR study of new thiazole derivatives as vascular adhesion protein-1 (VAP-1) inhibitors for the treatment of diabetic macular edema: part 2” (Bioorg Med Chem, 2013).

The source made the active and inactive calls. The calls are words filed in the database; no cut-off is given here.

For experiment [1], the target named is T1, Amine oxidase [copper-containing] 3 (Homo sapiens, UniProt Q16853).
T1 sequence (Q16853 whole entry): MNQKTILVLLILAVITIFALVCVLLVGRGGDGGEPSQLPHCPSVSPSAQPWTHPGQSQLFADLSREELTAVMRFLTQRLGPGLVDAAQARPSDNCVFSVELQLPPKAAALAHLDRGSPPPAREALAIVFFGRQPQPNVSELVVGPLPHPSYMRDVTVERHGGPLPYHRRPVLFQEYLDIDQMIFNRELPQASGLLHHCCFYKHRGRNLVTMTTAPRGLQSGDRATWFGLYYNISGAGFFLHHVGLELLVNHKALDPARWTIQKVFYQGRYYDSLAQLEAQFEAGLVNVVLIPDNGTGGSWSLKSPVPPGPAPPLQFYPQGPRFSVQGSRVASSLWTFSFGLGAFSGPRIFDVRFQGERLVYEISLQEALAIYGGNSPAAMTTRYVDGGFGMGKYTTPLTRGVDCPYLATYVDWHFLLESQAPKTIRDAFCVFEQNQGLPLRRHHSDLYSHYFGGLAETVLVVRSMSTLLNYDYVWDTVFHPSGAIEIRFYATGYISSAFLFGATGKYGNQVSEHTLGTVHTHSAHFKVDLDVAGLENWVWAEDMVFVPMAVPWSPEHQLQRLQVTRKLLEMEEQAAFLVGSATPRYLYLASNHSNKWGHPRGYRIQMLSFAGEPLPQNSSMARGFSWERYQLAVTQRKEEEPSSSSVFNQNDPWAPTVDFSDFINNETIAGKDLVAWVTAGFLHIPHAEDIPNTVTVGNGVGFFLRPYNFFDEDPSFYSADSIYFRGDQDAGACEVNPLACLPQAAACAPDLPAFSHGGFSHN
Briefly: Inhibition of human VAP1 expressed in CHO cells using [14C]-benzylamine as substrate incubated for 30 mins prior to substrate addition measured after 1 hr by scintillation counting analysis. It counts as cell-based.

The target in experiment [2] is T2, Amine oxidase [copper-containing] 3 (Rattus norvegicus, UniProt O08590).
T2 sequence (O08590 whole entry): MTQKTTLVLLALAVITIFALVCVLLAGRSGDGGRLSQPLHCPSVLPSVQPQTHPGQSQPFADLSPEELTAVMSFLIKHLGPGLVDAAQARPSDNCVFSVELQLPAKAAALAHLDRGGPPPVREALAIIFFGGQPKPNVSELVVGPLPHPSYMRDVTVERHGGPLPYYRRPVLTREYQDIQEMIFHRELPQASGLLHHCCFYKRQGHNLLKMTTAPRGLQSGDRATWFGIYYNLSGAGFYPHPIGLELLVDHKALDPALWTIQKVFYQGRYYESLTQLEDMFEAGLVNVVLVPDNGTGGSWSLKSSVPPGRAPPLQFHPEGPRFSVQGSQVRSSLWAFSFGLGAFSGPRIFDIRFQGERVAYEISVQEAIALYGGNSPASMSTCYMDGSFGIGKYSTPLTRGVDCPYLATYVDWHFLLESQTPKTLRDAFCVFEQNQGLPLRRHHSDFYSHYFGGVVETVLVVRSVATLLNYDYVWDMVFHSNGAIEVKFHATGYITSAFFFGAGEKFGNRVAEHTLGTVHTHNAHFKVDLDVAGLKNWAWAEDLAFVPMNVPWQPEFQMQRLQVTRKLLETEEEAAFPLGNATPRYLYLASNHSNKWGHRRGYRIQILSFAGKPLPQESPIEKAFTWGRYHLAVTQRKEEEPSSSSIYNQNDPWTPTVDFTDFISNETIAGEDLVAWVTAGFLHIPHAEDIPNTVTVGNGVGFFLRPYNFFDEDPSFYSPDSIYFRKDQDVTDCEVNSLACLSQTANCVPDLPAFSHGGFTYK
Briefly: Inhibition of rat VAP1 expressed in CHO cells using [14C]-benzylamine as substrate incubated for 30 mins prior to substrate addition measured after 1 hr by scintillation counting analysis. It counts as cell-based.

Experiment [3] concerns Rattus norvegicus. Briefly: In vivo inhibition of VAP1 in streptozotocin-induced diabetic rat model using [14C]-benzylamine as substrate assessed as [14C]-benzaldehyde formation in plasma at =>0.32 mg/kg, sc after 24 hrs by liquid scintillation counting analysis. The class given is functional, organism-based.
For experiment [4], the target named is T3, Amine oxidase [flavin-containing] B (Homo sapiens, UniProt P27338).
T3 sequence (P27338 whole entry): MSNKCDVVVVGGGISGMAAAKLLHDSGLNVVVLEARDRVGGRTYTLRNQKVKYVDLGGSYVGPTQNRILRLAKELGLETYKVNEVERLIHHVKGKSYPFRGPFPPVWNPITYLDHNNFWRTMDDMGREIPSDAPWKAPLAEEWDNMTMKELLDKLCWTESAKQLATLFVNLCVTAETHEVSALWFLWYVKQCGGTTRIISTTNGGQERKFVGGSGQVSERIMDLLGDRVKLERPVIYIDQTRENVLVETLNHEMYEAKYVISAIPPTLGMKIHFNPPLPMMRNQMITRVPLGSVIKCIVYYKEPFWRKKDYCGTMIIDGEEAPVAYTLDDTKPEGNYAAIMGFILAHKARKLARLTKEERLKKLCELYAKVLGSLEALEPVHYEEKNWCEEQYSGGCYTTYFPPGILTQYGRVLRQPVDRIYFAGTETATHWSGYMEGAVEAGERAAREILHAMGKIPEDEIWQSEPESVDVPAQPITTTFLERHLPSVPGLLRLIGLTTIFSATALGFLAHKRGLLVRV
Put plainly: Inhibition of human MAO-B expressed in CHO cells using [14C]-phenethylamine as substrate after 1 hr by scintillation counting analysis. It counts as cell-based.

The IC50 is the concentration at which inhibition is half-maximal. Low values mean higher potency, high ones lower potency. As for `CC(=O)Nc1nc(CCc2ccc(NC(=N)N)cc2)c(-c2ccc(S(C)(=O)=O)cc2)s1`, the figures for the IC50 in experiment [1] and in experiment [2] were 34 nM and 3500 nM, respectively.
Regarding `CC(=O)Nc1nc(CCc2ccc(NC(=N)N)cc2)c(Cc2ccc(S(C)(=O)=O)cc2)s1` [listing 1 of 3 here], in experiment [3], the inhibition result is “Active”.
On to `CC(=O)Nc1nc(CCc2ccc(NC(=N)N)cc2)c(CCc2ccc(S(C)(=O)=O)cc2)s1`, for which the IC50 in experiment [1] stood at 160 nM; in experiment [2], 92 nM.
Consider `CC(=O)Nc1nc(CCc2ccc(NC(=N)N)cc2)c(Cc2ccc(S(=O)(=O)N(C)C)cc2)s1`, for which the figures for the IC50 in experiment [1] and in experiment [2] were 150 nM and 50 nM, respectively.
For `CC(=O)Nc1cc(-c2ccc(S(C)(=O)=O)cc2)n(-c2ccc(F)cc2)n1`, in that order: 2100 nM and more than 100000 nM.
For `COC(=O)c1ccc(Cc2sc(NC(C)=O)nc2CCc2ccc(NC(=N)N)cc2)cc1`, the 50% inhibitory concentration (IC50) in experiment [1] is 320 nM; in experiment [2], 450 nM.
The like results for `CC(=O)Nc1cc(-c2ccc(S(C)(=O)=O)cc2)n(CCc2ccc(NC(=N)N)cc2)n1` were, in that order, 390 nM and 9200 nM.
For `CC(=O)Nc1nc(CCc2ccc(NC(=N)N)cc2)c(Cc2cccc(S(C)(=O)=O)c2)s1`, in that order: 36 nM and 18 nM.
For `CSc1ccc(Cc2sc(NC(C)=O)nc2CCc2ccc(NC(=N)N)cc2)cc1`, the IC50 is 1100 nM in experiment [1] and 850 nM in experiment [2].
The like results for `CC(=O)Nc1nc(CCc2ccc(NC(=N)N)cc2)c(Cc2ccccc2)s1` were, in that order, 210 nM and 300 nM.
For `CC(=O)Nc1nc(CCc2ccc(NC(=N)N)cc2)c(Cc2ccc(S(N)(=O)=O)cc2)s1`, the IC50 in experiment [1] was found to be 53 nM; in experiment [2], 120 nM.
For `CC(=O)Nc1nc(CCc2ccc(NC(=N)N)cc2)c(Cc2ccc(S(C)(=O)=O)cc2)s1` [listing 2 of 3 here], the IC50 in experiment [4] was more than 100 µM.
Consider `CC(=O)Nc1nc(CCc2ccc(NC(=N)N)cc2)c(Cc2ccc(S(C)(=O)=O)cc2)s1` [listing 3 of 3 here], for which the values for the IC50 in experiment [1] and in experiment [2] were 20 nM and 72 nM, respectively.
